Test results published in patent US5342922A, “Inhibitors of retroviral protease” (Washington University, priority 1989, dated 1994).
Numbered stars: 1 amine (or outer) side, 2 acyl side, 3 side chain; on linkers, the order of the positions; unused ones are H or OH. Square brackets hold non-standard residues; d marks the D form. Peptide text beside a SMILES is read from it. LeuΨ(CH2N)Pro = CC(C)C[C@@H](CN1CCC[C@H]1C(=O)[*:2])N[*:1]; X1 = O=C([C@@H]1CCCN1C[C@H](Cc1ccc(O)cc1)N[*:1])[*:2]; X2 = O=C([C@@H]1CCCN1C[C@H](Cc1ccccc1)N[*:1])[*:2]; X3 = CCCC[C@@H](CN(C)[C@@H](CCCC)C(=O)[*:2])N[*:1]; X4 = C[C@@H](CN1CCC[C@H]1C(=O)[*:2])N[*:1]

System: CD4+ human lymphocyte cells (H9 cells)
Test: not given
Conditions: preliminary

Row | Compound | toxicity as measured by cell count
1 | CC[C@H](C)[C@H](NC(=O)[C@@H]1CCCN1C[C@H](Cc1ccc(O)cc1)NC(=O)[C@H](CC(N)=O)NC(=O)[C@H](CCC(N)=O)NC(C)=O)C(=O)N[C@H](C(N)=O)C(C)C [Ac--Gln--Asn--Tyr-.PSI.[CH2 N]--Pro--Ile--Val--NH2] (Ac-QN[X1]IV-NH2) | no apparent toxicity
2 | CCCC[C@@H](CN[C@@H](CCCC)C(=O)N[C@@H](CCC(N)=O)C(=O)N[C@@H](CCCNC(=N)N)C(N)=O)NC(=O)[C@@H](NC(=O)[C@@H](NC(C)=O)[C@@H](C)O)[C@@H](C)CC [Ac--Thr--Ile--Nle-.PSI.[CH2 NH]--Nle--Gln--Arg--NH2] | no apparent toxicity

Target: T1, HIV protease (Human immunodeficiency virus type 1 group M subtype B, UniProt P04585)
Test: HIV protease assay, substrate cleavage (relative hydrolysis rates, Km, Vmax)
Format: biochemical, HIV-1
Conditions: percent of standard substrate concentration cleaved in twenty minutes, relative to Ac-Thr-Ile-Met-Met-Gln-Arg-NH2 = 1.00

Row | Compound | Relative Rate
3 | Aba--Thr--Ile--Nle--PnF--Gln--Arg--NH2 | 1.46
4 | Ac--Thr--Ile--Nle--Hle--Gln--Arg--NH2 | 0.95
5 | Ac-QNYPIV-NH2 [Ac--Gln--Asn--Tyr--Pro--Ile--Val--NH2] | 0.04
6 | Ac-TIMMQR-NH2 [Ac--Thr--Ile--Met--Met--Gln--Arg--NH2] | 1.00

Same assay, conditions: substrate of HIV protease

Row | Compound | Vmax [nmol/min/mg]
7 | Ac-TIMMQR-NH2 [Ac--Thr--Ile--Met--Met--Gln--Arg--NH2] | 725

Target: T1, HIV protease
Test: HIV protease assay, inhibition of cleavage of acetyl-Thr-Ile-Met-Met-Gln-Arg-NH2 (HPLC)
Format: biochemical, HIV-1
Conditions: affinities not fully characterized, classified by comparative inhibition studies; read-out: KI (affinity category)

Row | Compound | Ki [µM]
8 | CCCC[C@@H](CN[C@@H](CCCC)C(=O)N[C@H](C(=O)N[C@H](C(N)=O)[C@@H](C)O)[C@@H](C)CC)NC(=O)[C@H](CCC(N)=O)NC(=O)[C@H](CCCNC(=N)N)NC(C)=O [Ac--Arg--Gln--Nle-.PSI.[CH2 NH]--Nle--Ile--Thr--NH2] | 1 to 100
9 | CCCC[C@@H](CN[C@@H](CCCC)C(=O)N[C@@H](CCC(N)=O)C(=O)N[C@@H](CCCNC(=N)N)C(N)=O)NC(=O)[C@@H](NC(=O)[C@H](NC(C)=O)[C@H](C)O)[C@@H](C)CC [Ac--D--Thr--Ile--Nle-.PSI.[CH2 NH]--Nle--Gln--Arg--NH2] | 1 to 100
10 | CC(=O)NCC(=O)N[C@@H](CC(N)=O)C(=O)N[C@@H](Cc1ccc(O)cc1)CN1CCC[C@H]1C(=O)N[C@H](C(=O)N[C@@H](CCC(N)=O)C(N)=O)C(C)C [Ac--Gly--Asn--Tyr-.PSI.[CH2 N]--Pro--Val--Gln--NH2] (Ac-GN[X1]VQ-NH2) | 1 to 100
11 | CC(=O)N[C@@H](CC(C)C)C(=O)N[C@@H](C)C(=O)N[C@@H](C)CN1CCC[C@H]1C(=O)N[C@@H](CCC(N)=O)C(=O)N[C@@H](Cc1ccccc1)C(N)=O [Ac--Leu--Ala--Ala-.PSI.[CH2 N]--Pro--Gln--Phe--NH2] (Ac-LA[X4]QF-NH2) | > 100
12 | CC[C@H](C)[C@H](NC(=O)[C@@H]1CCCN1C[C@H](Cc1ccccc1)NC(=O)[C@H](CC(N)=O)NC(=O)[C@H](CC(C)C)NC(C)=O)C(=O)N[C@@H](CO)C(=O)O [Ac--Leu--Asn--Phe-.psi.[CH2 N]--Pro--Ile--Ser--OH] (Ac-LN[X2]IS-OH) | 1 to 100
13 | CC[C@H](C)[C@H](NC(=O)[C@H](CCC(N)=O)NC(=O)[C@@H]1CCCN1C[C@H](Cc1ccccc1)NC(=O)[C@H](CC(N)=O)NC(=O)[C@H](Cc1ccccc1)NC(C)=O)C(N)=O [Ac--Phe--Asn--Phe-.PSI.[CH2 N]--Pro--Gln--Ile--NH2] (Ac-FN[X2]QI-NH2) | 1 to 100
14 | CC[C@H](C)[C@H](NC(=O)[C@H](CCC(N)=O)NC(=O)[C@@H]1CCCN1C[C@H](Cc1ccccc1)NC(=O)[C@H](CC(N)=O)NC(=O)[C@H](Cc1ccccc1)NC(=O)[C@H](CO)NC(C)=O)C(N)=O [Ac--Ser--Phe--Asn--Phe-.PSI.[CH2 N]--Pro--Gln--Ile--NH2] (Ac-SFN[X2]QI-NH2) | 1 to 100
15 | CCCC[C@@H](CN[C@@H](CC1CCCCC1)C(=O)N[C@@H](CCC(N)=O)C(=O)N[C@@H](CCCNC(=N)N)C(N)=O)NC(=O)[C@@H](NC(=O)[C@@H](NC(C)=O)[C@@H](C)O)[C@@H](C)CC [Ac--Thr--Ile--Nle-.PSI.[CH2 NH]--Cha--Gln--Arg--NH2] | < 1
16 | CCCC[C@@H](CN[C@H](C(=O)N[C@@H](CCC(N)=O)C(=O)N[C@@H](CCCNC(=N)N)C(N)=O)[C@@H](C)CC)NC(=O)[C@@H](NC(=O)[C@@H](NC(C)=O)[C@@H](C)O)[C@@H](C)CC [Ac--Thr--Ile--Nle-.PSI.[CH2 NH]--Ile--Gln--Arg--NH2] | < 1
17 | CCCC[C@@H](CN[C@@H](CCCC)C(=O)N[C@@H](CCC(N)=O)C(=O)N[C@H](CCCNC(=N)N)C(N)=O)NC(=O)[C@@H](NC(=O)[C@@H](NC(C)=O)[C@@H](C)O)[C@@H](C)CC [Ac--Thr--Ile--Nle-.PSI.[CH2 NH]--Nle--Gln--D--Arg--NH2] | 1 to 100
18 | CCCC[C@@H](CN[C@@H](CCCC)C(=O)N[C@@H](CCC(N)=O)C(N)=O)NC(=O)[C@@H](NC(=O)[C@@H](NC(C)=O)[C@@H](C)O)[C@@H](C)CC [Ac--Thr--Ile--Nle-.PSI.[CH2 NH]--Nle--Gln--NH2] | 1 to 100
19 | CCCC[C@@H](CN[C@@H](CCCC)C(=O)N[C@@H](CCC(N)=O)C(=O)N[C@@H](CCC)C(N)=O)NC(=O)[C@@H](NC(=O)[C@@H](NC(C)=O)[C@@H](C)O)[C@@H](C)CC [Ac--Thr--Ile--Nle-.PSI.[CH2 NH]--Nle--Gln--Nva--NH2] | 1 to 100
20 | CCCC[C@@H](CN(C)[C@@H](CCCC)C(=O)N[C@@H](CCC(N)=O)C(=O)N[C@@H](CCCNC(=N)N)C(N)=O)NC(=O)[C@@H](NC(=O)[C@@H](NC(C)=O)[C@@H](C)O)[C@@H](C)CC [Ac--Thr--Ile--Nle-.psi.[CH2 NH]--MeNle--Gln--Arg--NH2] (Ac-TI[X3]QR-NH2) | > 100
21 | CCCC[C@@H](CNC1(C(=O)N[C@@H](CCC(N)=O)C(=O)N[C@@H](CCCNC(=N)N)C(N)=O)CCCC1)NC(=O)[C@@H](NC(=O)[C@@H](NC(C)=O)[C@@H](C)O)[C@@H](C)CC [Ac--Thr--lle--Nle-.PSI.[CH2 NH]--Cle--Gln--Arg--NH2] | > 100
22 | CCCC[C@@H](CN[C@@H](CC(C)C)C(=O)N[C@@H](CCC(N)=O)C(=O)N[C@@H](CCCNC(=N)N)C(N)=O)NC(=O)[C@@H](NC(=O)[C@@H](NC(C)=O)[C@@H](C)O)[C@@H](C)CC [Ac--Thr--lle--Nle-.PSI.[CH2 NH]--Leu--Gln--Arg--NH2] | < 1
23 | CCCC[C@@H](CN[C@@H](Cc1ccccc1)C(=O)N[C@@H](CCC(N)=O)C(=O)N[C@@H](CCCNC(=N)N)C(N)=O)NC(=O)[C@@H](NC(=O)[C@@H](NC(C)=O)[C@@H](C)O)[C@@H](C)CC [Ac--Thr--lle--Nle-.PSI.[CH2 NH]--Phe--Gln--Arg--NH2] | < 1
24 | CC[C@H](C)[C@H](NC(=O)[C@@H]1CCCN1C[C@H](Cc1ccccc1)NC(=O)[C@H](CC(N)=O)NC(=O)[C@H](CC(C)C)NC(=O)[C@@H](N)[C@@H](C)O)C(=O)N[C@@H](CO)C(=O)O [H2 N--Thr--Leu--Asn--Phe-.PSI.[CH2 N]--Pro--Ile--Ser--OH] (H-TLN[X2]IS-OH) | 1 to 100

Same assay, conditions: in vitro inhibition of HIV protease, pH 6.5, 25°; read-out: KI

Row | Compound | Ki [µM]
25 | CC[C@H](C)[C@H](NC(=O)[C@@H]1CCCN1C[C@H](Cc1ccc(O)cc1)NC(=O)[C@H](CC(N)=O)NC(=O)[C@H](CCC(N)=O)NC(C)=O)C(=O)N[C@H](C(N)=O)C(C)C [Ac--Gln--Asn--Tyr-.PSI.[CH2 N]--Pro--Ile--Val--NH2] (Ac-QN[X1]IV-NH2) | 17.2
26 | CC[C@H](C)[C@H](NC(=O)[C@@H](NC(C)=O)[C@@H](C)O)C(=O)N[C@H](CN[C@@H](CC(C)C)C(=O)N[C@@H](CCC(N)=O)C(=O)N[C@@H](CCCNC(=N)N)C(N)=O)CC(C)C [Ac--Thr--lle--Leu-.PSI.[CH2 NH]--Leu--Gln--Arg--NH2] | 0.734
27 | CC(C)C[C@@H](CN1CCC[C@H]1C(=O)N[C@H](C(=O)N[C@@H](C)C(=O)O)C(C)C)NC(=O)[C@H](CC(N)=O)NC(=O)[C@H](CC(C)C)NC(=O)[C@@H](N)CO [H2 N--Ser--Leu--Asn--Leu-.PSI.[CH2 N]--Pro--Val--Ala--OH] (H-SLN[LeuΨ(CH2N)Pro]VA-OH) | 13.1

Target: T1, HIV protease
Test: not given
Conditions: Darke et al. 1988; cited from earlier work

Row | Compound | cleavage by HIV protease | Km [µM]
28 | QNY-PIV | failed to be cleaved | –
29 | SQNY-PI | failed to be cleaved | –
30 | VSQNYPIV | – | 2500
31 | acetyl-QNY-PIV | failed to be cleaved | –

Same assay, conditions: Darke et al. 1988; of the rate of VSQNYPIV; cited from earlier work

Row | Compound | cleavage rate relative to the octapeptide [%]
32 | SQNY-PIV | 90
